Results as given in US10407421B2, “Bicyclic aryl monobactam compounds and methods of use thereof for the treatment of bacterial infections” (priority 2016, dated 2019).
Counter-ions that a name gives are not always drawn.

How the values were obtained:
Format in all cases: cell-based
Conditions in all cases: in the presence of β lactamase inhibitor Relebactam 4 μg/mL; 22 hours at 35±2° C.; lowest concentration inhibiting 95% of growth (OD600)
[1] = system: Acinetobacter baumannii expressing TEM-1, AmpC, and Oxa-24/40 (CL6188); test: Growth inhibitory concentration (OD600), Acinetobacter baumannii CL6188
Procedure: (§1) Antibiotic Activity: Determination of Growth Inhibitory Concentration
(§2) The concentrations of compounds required to inhibit the growth of various strains of bacteria were determined in an assay that assessed bacterial growth by measuring optical density at 600 nm (OD600). The bacterial strains tested included the clinical strains Escherichia coli expressing NDM-1 (CLB30016), Klebsiella pneumoniae expressing KPC-1 (CL6569), Acinetobacter baumannii expressing TEM-1, AmpC, and Oxa-24/40 (CL6188) and Pseudomonas aeruginosa expressing AmpC (CL5701). All compounds were tested in the presence of a β lactamase inhibitor (BLi, Relebactam) in 384-well microplates. The clinical strains were stored as frozen single use stocks, thawed and diluted into 1.1× cation-adjusted Mueller-Hinton II broth to achieve approximately 2×10^5 CFU/mL. Test compounds were dissolved in DMSO and diluted 1:50 in the assay, resulting in a final concentration range of 100 μM to 0.098 μM. […] At the end of the incubation, absorbance at 600 nm was determined using a spectrophotometer. Inhibition was quantitated by identifying the lowest concentration of test compound that was required to inhibit 95% of the growth of the bacteria. The results for Examples 1-73 are reported in Table I, expressed as the concentration of compound that inhibited 95% of bacterial growth (Minimum Inhibitory Threshold Concentration; MITC95).

[2] = system: Escherichia coli expressing NDM-1 (CLB30016); test: Growth inhibitory concentration (OD600), Escherichia coli CLB30016
Procedure: as §1, §2

[3] = system: Klebsiella pneumoniae expressing KPC-1 (CL6569); test: Growth inhibitory concentration (OD600), Klebsiella pneumoniae CL6569
Procedure: as §1, §2

[4] = system: Pseudomonas aeruginosa expressing AmpC (CL5701); test: Growth inhibitory concentration (OD600), Pseudomonas aeruginosa CL5701
Procedure: as §1, §2

Structure (SMILES): C[n+]1c2ccc(OC[C@H](O/N=C(\C(=O)N[C@@H]3C(=O)N(OS(=O)(=O)[O-])C3(C)C)c3csc(N)n3)C(=O)O)cc2cn1C[C@H](O)CN [Example 51, (S)-3-((Z)-2-(((S)-2-((2-((R)-3-amino-2-hydroxypropyl)-1-methyl-2H-indazol-1-ium-5-yl)oxy)-1-carboxyethoxy)imino)-2-(2-aminothiazol-4-yl)acetamido)-2,2-dimethyl-4-oxoazetidin-1-yl Sulfate]
- AB_CL6188 MITC95 [1]: 6.25 µM
- EC_CLB30016 MITC95 [2]: 25 µM
- KP_CL6569 MITC95 [3]: 0.78 µM
- PA_CL5701 MITC95 [4]: 12.5 µM
